We go through 18 molecules from US10464964B2, “Galactoside inhibitor of galectins” (Galecto Biotech AB, priority 2015, dated 2019).

Values after ≈ are worked out from the molar mass of the structure shown. Like-named read-outs stand apart in the source and are kept apart here. Where only a bound is given, the exact number is not on record here.

Usually solubility stands for how much of the substance goes into solution per volume. For orientation: Kd means the constant that tells how readily two partners part at equilibrium.

A short description of one data set: Solubility. Type of data set: physicochemical.
A further data set deals with galectin-3 (Homo sapiens, UniProt P17931). Nature of the data set: fluorescence anisotropy assay, inhibition of galectin / fluorescein tagged saccharide probe interaction. On the technique in general: Polarisation of emitted light reports the rotation of a fluorescent probe.
galectin-3, sequence (P17931 whole entry): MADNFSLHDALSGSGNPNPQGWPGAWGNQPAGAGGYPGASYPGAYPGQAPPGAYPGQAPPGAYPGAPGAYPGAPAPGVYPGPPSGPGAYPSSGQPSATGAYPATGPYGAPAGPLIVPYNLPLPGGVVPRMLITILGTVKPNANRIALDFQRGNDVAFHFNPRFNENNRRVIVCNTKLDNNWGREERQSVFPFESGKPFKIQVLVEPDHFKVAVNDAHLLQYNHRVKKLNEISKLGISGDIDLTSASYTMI
Another data set addresses Galectin 1 (Homo sapiens, UniProt P09382). The data set is described as above.
The next data set concerns galectins. The settings on record: cited from earlier work.
Setting [1] is: aqueous buffer, 0.1 M phosphate buffer pH 6.5, read-out: Solubility buffer.
[2] abbreviates: water, read-out: Solubility water.

Galectin 1, sequence (P09382 whole entry): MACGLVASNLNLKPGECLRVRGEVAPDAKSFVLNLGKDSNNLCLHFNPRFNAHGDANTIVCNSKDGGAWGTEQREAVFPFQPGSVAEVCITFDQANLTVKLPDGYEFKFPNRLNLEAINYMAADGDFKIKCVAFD

On to `OCC1O[C@@H](SC2O[C@H](CO)C(O)C(n3cc(-c4ccc(F)cn4)nn3)[C@H]2O)C(O)C(n2cc(-c3ccc(F)cn3)nn2)[C@H]1O` (stereo in doubt) [Example S4a, 3,3′-Dideoxy-3,3′-bis-[4-(5-fluoro-2-pyridin-2-yl)-1H-1,2,3-triazol-1-yl]-1,1′-sulfanediyl-di-β-D-galactopyranoside], for which the results for the solubility in “Solubility” (setting [1]) and in the data set “Solubility” (setting [2]) were 2600 µg/mL (≈ 4000 µM) and 4300 µg/mL (≈ 6610 µM), respectively. Besides, the Kd came out at 0.01 µM at galectin-3 and 0.021 µM on Galectin 1.

Consider `Cn1cncc1-c1cn(C2C(O)[C@H](SC3O[C@H](CO)C(O)C(n4cc(-c5cncn5C)nn4)[C@H]3O)OC(CO)[C@@H]2O)nn1` (stereo in doubt) [Example S4c, 3,3′-Dideoxy-3,3′-bis-[4-(1-methyl-1H-imidazol-5-yl)-1H-1,2,3-triazol-1-yl]-1,1′-sulfanediyl-di-β-D-galactopyranoside], for which the Kd was 0.131 µM at galectin-3 and 0.6 µM on Galectin 1.

For the molecule `OCC1O[C@@H](SC2O[C@H](CO)C(O)C(n3cc(-c4ncc(C(F)(F)F)cc4Cl)nn3)[C@H]2O)C(O)C(n2cc(-c3ncc(C(F)(F)F)cc3Cl)nn2)[C@H]1O` (stereo in doubt) [Example S4d, 3,3′-Dideoxy-3,3′-bis-[4-(3-chloro-5-trifluoromethyl-pyridin-2-yl)-1H-1,2,3-triazol-1-yl]-1,1′-sulfanediyl-di-β-D-galactopyranoside], in “Solubility” (setting [1]), the solubility is 200 µg/mL (≈ 244 µM). The figures for the Kd on galectin-3 and on Galectin 1 were 0.025 µM and 0.74 µM, respectively.

With `OCC1O[C@@H](SC2O[C@H](CO)C(O)C(n3cc(-c4ccccn4)nn3)[C@H]2O)C(O)C(n2cc(-c3ccccn3)nn2)[C@H]1O` (stereo in doubt) [Example S4f, 3,3′-Dideoxy-3,3′-bis-[4-(pyridin-2-yl)-1H-1,2,3-triazol-1-yl]-1,1′-sulfanediyl-di-β-D-galactopyranoside], the solubility in the data set “Solubility” (setting [1]) was found to be 450 µg/mL (≈ 732 µM). For the same molecule, the Kd on galectin-3 came out at 0.042 µM; at Galectin 1 it was 0.21 µM.

As to `OCC1O[C@@H](SC2O[C@H](CO)C(O)C(n3cc(-c4ccc(F)cn4)nn3)[C@H]2O)C(O)C(n2cc(-c3cc(F)c(F)c(F)c3)nn2)[C@H]1O` (stereo in doubt) [Example S7, 3,3′-Dideoxy-3-[4-(5-fluoropyridin-2-yl)-1H-1,2,3-triazol-1-yl]-3′-[4-(3,4,5-trifluorophenyl)-1H-1,2,3-triazol-1-yl]-1,1′-sulfanediyl-di-β-D-galactopyranoside], the Kd at galectin-3 was below 0.005 µM; at Galectin 1, 0.04 µM.

Take `OCC1O[C@@H](SC2O[C@H](CO)C(O)C(n3cc(-c4cccnc4)nn3)[C@H]2O)C(O)C(n2cc(-c3cc(F)c(F)c(F)c3)nn2)[C@H]1O` (stereo in doubt) [Example S8a, 3,3′-3-[4-(pyridin-3-yl)-1H-1,2,3-triazol-1-yl]-3′-[4-(3,4,5-trifluorophenyl)-1H-1,2,3-triazol-1-yl]-1,1′-sulfanediyl-di-β-D-galactopyranoside]: the solubility in the data set “Solubility” (setting [1]) is 41 µg/mL (≈ 61.4 µM). Further, the Kd is 0.002 µM on galectin-3 and 0.038 µM at Galectin 1.

As for `OCC1O[C@@H](SC2O[C@H](CO)C(O)C(n3cc(-c4cncnc4)nn3)[C@H]2O)C(O)C(n2cc(-c3cc(F)c(F)c(F)c3)nn2)[C@H]1O` (stereo in doubt) [Example S8b, 3,3′-Dideoxy-3-[4-(1,3-pyrimidin-5-yl)-1H-1,2,3-triazol-1-yl]-3′-[4-(3,4,5-trifluorophenyl)-1H-1,2,3-triazol-1-yl]-1,1′-sulfanediyl-di-β-D-galactopyranoside], the solubility in the data set “Solubility” (setting [1]) is 360 µg/mL (≈ 538 µM). Further, the Kd was below 0.002 µM at galectin-3 and 0.08 µM at Galectin 1.

Consider `OCC1O[C@@H](SC2O[C@H](CO)C(O)C(n3cc(-c4ncccn4)nn3)[C@H]2O)C(O)C(n2cc(-c3cc(F)c(F)c(F)c3)nn2)[C@H]1O` (stereo in doubt) [Example S8c, 3,3′-Dideoxy-3-[4-(1,3-pyrimidin-2-yl)-1H-1,2,3-triazol-1-yl]-3′-[4-(3,4,5-trifluorophenyl)-1H-1,2,3-triazol-1-yl]-1,1′-sulfanediyl-di-β-D-galactopyranoside], for which the solubility in the data set “Solubility” (setting [1]) worked out at 4600 µg/mL (≈ 6880 µM). Besides, the values for the Kd at galectin-3 and at Galectin 1 were below 0.002 µM and 0.07 µM, respectively.

Regarding `OCC1O[C@@H](SC2O[C@H](CO)C(O)C(n3cc(-c4ccccn4)nn3)[C@H]2O)C(O)C(n2cc(-c3cc(F)c(F)c(F)c3)nn2)[C@H]1O` (stereo in doubt) [Example S8d, 3,3′-Dideoxy-3-[4-(pyridin-2-yl)-1H-1,2,3-triazol-1-yl]-3′-[4-(3,4,5-trifluorophenyl)-1H-1,2,3-triazol-1-yl]-1,1′-sulfanediyl-di-β-D-galactopyranoside], the solubility in the data set “Solubility” (setting [1]) came to 1400 µg/mL (≈ 2100 µM). In addition, the values for the Kd on galectin-3 and on Galectin 1 were 0.001 µM and 0.038 µM, respectively.

For `OCC1O[C@@H](SC2O[C@H](CO)C(O)C(n3cc(-c4ccncc4)nn3)[C@H]2O)C(O)C(n2cc(-c3cc(F)c(F)c(F)c3)nn2)[C@H]1O` (stereo in doubt) [Example S8e, 3,3′-Dideoxy-3-[4-(pyridin-4-yl)-1H-1,2,3-triazol-1-yl]-3′-[4-(3,4,5-trifluorophenyl)-1H-1,2,3-triazol-1-yl]-1,1′-sulfanediyl-di-β-D-galactopyranoside], the solubility in the data set “Solubility” (setting [1]) is 1300 µg/mL (≈ 1950 µM). Further, the Kd on galectin-3 turned out to be 0.001 µM; at Galectin 1, 0.072 µM.

On to `CC(=O)Nc1ccc(-c2cn(C3C(O)[C@@H](CO)OC(S[C@@H]4OC(CO)[C@H](O)C(n5cc(-c6cc(F)c(F)c(F)c6)nn5)C4O)[C@@H]3O)nn2)cn1` (stereo in doubt) [Example S8f, 3-[4-((2-acetamid-N-yl)-pyridin-5-yl)-3,3′-dideoxy-1H-1,2,3-triazol-1-yl]-3′-[4-(3,4,5-trifluorophenyl)-1H-1,2,3-triazol-1-yl]-1,1′-sulfanediyl-di-β-D-galactopyranoside], for which the solubility in the data set “Solubility” (setting [1]) turned out to be 770 µg/mL (≈ 1060 µM). The results for the Kd on galectin-3 and on Galectin 1 were 0.005 µM and 0.149 µM, respectively.

On to `Nc1ccc(-c2cn(C3C(O)[C@@H](CO)OC(S[C@@H]4OC(CO)[C@H](O)C(n5cc(-c6cc(F)c(F)c(F)c6)nn5)C4O)[C@@H]3O)nn2)cn1` (stereo in doubt) [Example S8g, 3-[4-(2-aminopyridin-5-yl)-3,3′-dideoxy-1H-1,2,3-triazol-1-yl]-3′-[4-(3,4,5-trifluorophenyl)-1H-1,2,3-triazol-1-yl]-1,1′-sulfanediyl-di-β-D-galactopyranoside], for which the solubility in “Solubility” (setting [1]) was 1800 µg/mL (≈ 2640 µM). In addition, the Kd was below 0.002 µM on galectin-3 and 0.034 µM at Galectin 1.

Turning to `OCC1O[C@@H](SC2O[C@H](CO)C(O)C(n3cc(-c4ncc(F)cn4)nn3)[C@H]2O)C(O)C(n2cc(-c3cc(F)c(F)c(F)c3)nn2)[C@H]1O` (stereo in doubt) [Example S8h, 3,3′-Dideoxy-3-[4-(5-fluoro-1,3-pyrimidin-2-yl)-1H-1,2,3-triazol-1-yl]-3′-[4-(3,4,5-trifluorophenyl)-1H-1,2,3-triazol-1-yl]-1,1′-sulfanediyl-di-β-D-galactopyranoside], the solubility in “Solubility” (setting [1]) amounted to 3300 µg/mL (≈ 4810 µM). For the same molecule, the dissociation constant Kd at galectin-3 was below 0.002 µM; on Galectin 1, 0.055 µM.

Take `O=C[C@H](O)[C@@H](O)[C@@H](O)[C@H](O)CO` [D-galactose]: the “affinity, times lower than lactose” value in the data set with galectins (relative to lactose) is given as 50-100 times.

In the case of `COc1ccc(-c2cn(C3C(O)[C@@H](CO)OC(S[C@@H]4OC(CO)[C@H](O)[C@H](n5cc(-c6ccc(OC)nc6)nn5)C4O)[C@@H]3O)nn2)cn1` (stereo partly drawn) [Example S4b, 3,3′-Dideoxy-3,3′-bis-[4-(6-methoxypyridin-3-yl)-1H-1,2,3-triazol-1-yl]-1,1′-sulfanediyl-di-β-D-galactopyranoside], the figures for the dissociation constant Kd on galectin-3 and on Galectin 1 were 0.012 µM and 0.12 µM, respectively.

With `OCC1O[C@@H](S[C@@H]2O[C@H](CO)C(O)C(n3cc(-c4cncnc4)nn3)[C@H]2O)C(O)[C@@H](n2cc(-c3cncnc3)nn2)[C@H]1O` (stereo partly drawn) [Example S4e, 3,3′-Dideoxy-3,3′-bis-[4-(pyrimidin-5-yl)-1H-1,2,3-triazol-1-yl]-1,1′-sulfanediyl-di-β-D-galactopyranoside], the solubility in the data set “Solubility” (setting [1]) worked out at 7 µg/mL (≈ 11.4 µM). The Kd turned out to be 0.044 µM at galectin-3 and 0.39 µM on Galectin 1.

Consider `OCC1O[C@@H](SC2O[C@H](CO)C(O)C(n3cc(-c4cccc(F)c4)nn3)[C@H]2O)C(O)[C@@H](n2cc(-c3cccc(F)c3)nn2)[C@H]1O` (stereo partly drawn) [Ref 1, 3,3′-bis-[4-(3-fluorophenyl)-1H-1,2,3-triazol-1-yl]-1,1′-sulfanediyl-di-β-D-galactopyranoside, reference compound], for which, in the data set “Solubility” (setting [2]), the solubility was determined as 400 µg/mL (≈ 617 µM).

For the molecule `OC[C@H]1O[C@@H](O[C@H]2[C@H](O)[C@@H](O)C(O)O[C@@H]2CO)[C@H](O)[C@@H](O)[C@H]1O` (stereo partly shown) [lactose], the Kd at galectins (all galectins) is 500 to 1000 µM.
